{"source": "patent US20250162995A1", "about": "“PHENTOLAMINE MESYLATE AND THERAPEUTIC USES THEREOF” (Opus Genetics, Inc., priority 2023, published 2025)", "test": "XRPD analysis of the solid form after further drying (form stability)", "format": "physicochemical", "conditions": "further dried at 0.24 bar and 25° C. for 16 hours", "description": "Unless otherwise noted, XRPD data was collected using a PANanalytical EMPYREAN vs. 8.2 20201404 diffractometer with a Cu-Kα radiation (λ=1.541874 Å) source operating at 45 kV and 40 mA in transmission theta-theta configuration. Samples were scanned from 2° to 40° 2-theta with a step size of 0.013° 2-theta and a time per step of 78.795 sec. Data collection was performed with DATA COLLECTOR vs. 7.1 and processed with Data Viewer vs. 2.1 and Profex 5.2.4 software.\nThe phentolamine mesylate obtained according to this Example 4 was further dried at 0.24 bar and 25° C. for 16 hours.\nThe phentolamine mesylate obtained according to this Example 6 was further dried at 25° C. at 0.24 bar for 16 hours.\nThe phentolamine mesylate obtained according to this Example 7 was further dried at 0.24 bars at 25° C. for 16 hours.\nThe phentolamine mesylate obtained according to this Example 11 was further dried at 25° C. and 0.24 bar for 16 hours.\nThe phentolamine mesylate obtained according to this Example 12 was further dried at 25° C. and 0.24 bar for 16 hours.", "note": "Where a name gives a salt, the structure may show the parent alone.", "data": [{"smiles": "Cc1ccc(N(CC2=NCCN2)c2cccc(O)c2)cc1", "note": "[Example 4, phentolamine mesylate]", "values": [{"measurement": "solid form found by XRPD analysis of the further dried material", "value": "converted to a mixture of the phentolamine mesylate having XRPD peaks of Reference A and the phentolamine mesylate obtained according to Example 1"}]}, {"smiles": "Cc1ccc(N(CC2=NCCN2)c2cccc(O)c2)cc1", "note": "[Example 12, phentolamine mesylate]", "values": [{"measurement": "solid form found by XRPD analysis of the further dried material", "value": "converted to the phentolamine mesylate obtained according to Example 1"}]}, {"smiles": "Cc1ccc(N(CC2=NCCN2)c2cccc(O)c2)cc1", "note": "[Example 6, phentolamine mesylate]", "values": [{"measurement": "solid form found by XRPD analysis of the further dried material", "value": "converted to the phentolamine mesylate obtained according to Example 1"}]}, {"smiles": "Cc1ccc(N(CC2=NCCN2)c2cccc(O)c2)cc1", "note": "[Example 11, phentolamine mesylate]", "values": [{"measurement": "solid form found by XRPD analysis of the further dried material", "value": "converted to the phentolamine mesylate obtained according to Example 1"}]}, {"smiles": "Cc1ccc(N(CC2=NCCN2)c2cccc(O)c2)cc1", "note": "[Example 7, phentolamine mesylate]", "values": [{"measurement": "solid form found by XRPD analysis of the further dried material", "value": "converted to the phentolamine mesylate obtained according to Example 1"}]}]}
